These results are taken from patent US20120245188A1, “METHODS OF TREATING MEMORY LOSS AND ENHANCING MEMORY PERFORMANCE” (priority 2010, published 2012).

Molecules are shown by their SMILES.

The test system of assay [1] is seventeen month old male Fischer-344 rats. Description: Working memory, Delay Match to Sample water maze in aged rats. As to conditions: high dose 30 mg/kg/day i.p. It is filed as in vivo, rat. How it is done:
Other methods of evaluating spatial and visual working memory include Delayed-Match to Sample (DMS) asymmetrical 3-choice task, which is illustrated in detail in the Example section. The visible platform task was used to confirm that animals have the ability to perform the procedural components of water-escape maze testing, including the visual and motoric capacities necessary to swim towards and climb onto a platform. The role of SB239063 on spatial memory performance was tested in the aged rat model. […] Dosing was initiated three days prior to testing and continued throughout the experiment until sacrifice (FIG. 1). Rats were tested on a maze battery including the spatial reference memory Morris maze (MM), and a delay match to sample task (DMS) where the spatial location of the platform needed to be updated on a daily basis, thereby evaluating short term memory (FIG. 2). […] There was a significant Trial×Treatment Interaction in the process, and the swim distance F(5,10)=2.298 (p=0.0151). The high-dose receiving group learned the task faster, indicated by committing fewer errors compared to vehicle-only rats on trial 3 (FIG. 4B).

Assay [2] has the same test system. Kind of assay: Spatial reference memory, Morris Water Maze in aged rats. The format is in vivo, rat. From the text: Working memory can also be tested using the Morris water maze. In general, the Morris water maze is a large round tub of opaque water with […] located 1-2 cm under the water's surface. The rat is placed on a start platform. The rat swims around until it finds the other platform to stand on. External cues, such as patterns or the standing researcher, are placed around the pool in the same spot every time to help the rat learn where the end platform is. The researcher measures how long it takes for a rat to find hidden platform, by changing or moving and using different spatial cues. The Morris water maze tests the spatial learning, cognitive maps and memory. The rats under the Morris water maze test may be given particular drugs or treatment conditions to see if these impair or enhance short-term memory. In one embodiment, the subject may be administered a pharmaceutical composition comprising SB 239063. The role of SB239063 on spatial memory performance was tested in the aged rat model. […] Dosing was initiated three days prior to testing and continued throughout the experiment until sacrifice (FIG. 1). Rats were tested on a maze battery including the spatial reference memory Morris maze (MM), and a delay match to sample task (DMS) where the spatial location of the platform needed to be updated on a daily basis, thereby evaluating short term memory (FIG. 2). Spatial Reference Memory—Morris Water Maze: For the Morris Water Maze, 6 trials per day for 3 days were carried out. […] Mean (±Standard Error) swim distance across all days of testing for all rats are depicted in FIG. 3.

Assay [3] deals with adjuvant-induced arthritis. Particulars: 10 mg/kg, administered orally, rats; cited from earlier work.
For a further assay, the system named is cultured neurons. As to conditions: cited from earlier work.
For the next assay, the target named is β form of p38 MAPK (Homo sapiens, UniProt Q15759). As to conditions: cited from earlier work.
Sequence of β form of p38 MAPK (Q15759 whole entry): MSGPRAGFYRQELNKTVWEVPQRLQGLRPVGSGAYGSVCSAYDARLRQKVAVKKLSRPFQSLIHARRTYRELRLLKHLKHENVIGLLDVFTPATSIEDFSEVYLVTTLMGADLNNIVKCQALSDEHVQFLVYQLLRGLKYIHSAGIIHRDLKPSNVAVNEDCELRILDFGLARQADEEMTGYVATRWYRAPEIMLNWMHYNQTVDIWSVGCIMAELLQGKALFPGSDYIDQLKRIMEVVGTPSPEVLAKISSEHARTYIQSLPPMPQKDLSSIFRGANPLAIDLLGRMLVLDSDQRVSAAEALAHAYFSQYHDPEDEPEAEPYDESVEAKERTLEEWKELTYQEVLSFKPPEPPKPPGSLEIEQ
The subject of another assay is moderate stroke. Particulars: oral administration of 15 mg/kg before moderate stroke; cited from earlier work.

`COc1nccc(-c2c(-c3ccc(F)cc3)ncn2[C@H]2CC[C@H](O)CC2)n1` [SB239063, trans-1-(4-hydroxycyclohexyl)-4-(4-fluorophenyl)-5-(2-methoxypyridimidin-4-yl)imidazole]: the “Three Choice Task errors on trial 3 compared to vehicle-only rats” value in assay [1] (Fisher post hoc p=0.011) is given as “fewer errors”. Besides, in assay [1] (p=0.01), the “performance on DMS compared to vehicle-treated animals (learning of the new platform location)” value is recorded as “enhanced performance”. Besides, in assay [2] (all groups (15 and 30 mg/kg), p<0.005), the “localization to the platformed quadrant during the probe trial by the last day of testing” value was “localized to the platformed quadrant”. Also, the “linear trend for swim distance scores across days” value in assay [2] (high dose 30 mg/kg daily i.p., F(1,10)=1.531, p=0.244) is “did not show a linear trend”; in assay [2] (low dose 15 mg/kg daily i.p., F(1,10)=19.253, p=0.001) it was “showed a significant linear trend”. Moreover, the “Morris Water Maze spatial reference memory performance as days progressed” value in assay [2] (high dose 30 mg/kg/day i.p.) is recorded as “impaired”; in assay [2] (low dose 15 mg/kg/day i.p.), “exhibited significant learning”. Moreover, in assay [3], the “reduction of adjuvant-induced arthritis” value is reported as 51%. The “protection against mild excitotoxic neuronal injury caused by NMDA” value in the assay with cultured neurons (NMDA (N-methyl D-aspartate)) is “protect against mild excitotoxic neuronal injury”. The “protection against cell death induced by oxygen glucose deprivation (OGD) or magnesium deprivation” value in the assay on cultured neurons (cultured neurons) is “substantial protection against cell death”. In addition, the “inhibition of β form of p38 MAPK” value at β form of p38 MAPK is “inhibits”. Also, in the assay on moderate stroke, the “reduction of infarct volume” value was 48%. Moreover, the “reduction of neurological deficits” value in the assay on moderate stroke is listed as 42%.
